For orientation: logP means a log measure of how a compound divides between an organic and an aqueous phase. A higher logP goes with a more lipophilic compound. Broadly, the IC50 is the concentration that inhibits the measured activity by half. A lower IC50 goes with inhibition by little substance.

Molecules are shown by their SMILES. Where a name gives a salt, the structure may show the parent alone.

In data set [1] the target is P99 β-lactamase (class C) (Enterobacter cloacae, UniProt P05364). As to the kind of experiment: biochemical. How it is done: Enzyme activity against the commercially available substrate, nitrocefin, was measured in the presence of various inhibitor concentrations. The P99 β-lactamase enzyme (1 mg/mL) was dissolved in 20 mM MOPS buffer at pH 7.50, and diluted 200-fold in the same buffer containing 0.1% BSA. Nitrocefin was stored as a 100 μM stock solution in 20 mM MOPS at pH 7.5. Stock solutions of test compounds were prepared in 10 mM MOPS at pH 7.5 (approximately 1 mg/mL)
The reaction at 25° C. was followed spectrophotometrically at 482 nm. IC50 values were determined from the dose-response plots of the initial rates vs. inhibitor concentration

In data set [2] the test system is Enterobacter cloacae [ATCC #23355]. It counts as cell-based. Conditions: ratio antibiotic MIC without/with inhibitor; inhibitor 10 μg/mL. From the text:
An increasing number of organisms produce enzymes that inhibit the actions of β-lactam antibiotics, so-called β-lactamases. […] The Minimum Inhibitory Concentration (MIC) test determines the lowest concentration of an antibiotic at which no visible bacterial growth occurs. This test permits comparisons to be made between bacterial growth in the presence of antibiotic alone (control) and bacterial growth in the presence of both an antibiotic and a novel (test) compound.
(§1) Frozen bacterial stocks were thawed to room temperature, and a few drops were placed on an appropriate plate; chocolate agar was used for H. influenzae, blood agar was used for all others. The plates were incubated overnight at 37° C. in air, except for H. influenzae, which was incubated in a CO2 incubator. The cultures were subcultured the following day, and the subcultures were again incubated overnight
A sterile loop was touched to 3 colonies and used to inoculate 1 mL of Mueller-Hinton Broth (MHB). […] 5 μL of the resultant inoculum solution contained ˜4×10^4 CFU/mL. Confirmation of the inoculum was performed by preparing a serial dilution to give 100 μL of a 5000-fold dilution, all of which was then plated onto an appropriate plate.
Each plate included 2 wells with no bacterial inoculum (negative control) and 2 wells with no test compound and no antibiotic (positive control). The plate was covered and incubated with gentle shaking for 16-20 hours at 37° C. in air (CO2 for H. influenzae). Absorbance was read at 540 nm (Multiskan Titertek mcc/340). Bacterial growth was scored as follows:
(§2) In some cases, the determination of MIC in the presence of test compound was performed at more than one concentration of the test compound.
The impact of the novel β-lactamase inhibitors is expressed as the ratio of the MIC determined in the absence of β-lactamase inhibitor to the MIC determined in the presence of the specified concentration of the β-lactamase inhibitor test compound.

Data set [3] has as its system Pseudomonas aeroginosa [ATCC#12470-resistant]. As to the kind of experiment: Synergy against highly resistant β-lactamase positive strains. It is filed as cell-based. How it is done: as §1
(§3) A sterile loop was touched to 3 colonies and used to inoculate 1 mL of Mueller-Hinton Broth (MHB). The bacterial solution was diluted 18.8-fold (20 μL of bacterial solution in […] of broth). 5 μL of the resultant inoculum solution contained ˜4×10^4 CFU/mL. Confirmation of the inoculum was performed by preparing a serial dilution to give 100 μL of a 5000-fold dilution, all of which was then plated onto an appropriate plate. After incubation overnight at 37° C., the plate had 75-150 colonies.
(§4) In each well of a 96-well microtiter plate was combined 5 μL of bacterial inoculum, 90 μL of antibiotic dilutions, and 5 μL of test compound (or media for determination of the MIC of the antibiotic in the absence of test compound). Each plate included 2 wells with no bacterial inoculum (negative control) and 2 wells with no test compound and no antibiotic (positive control). The plate was covered and incubated with gentle shaking for 16-20 hours at 37° C. in air (CO2 for H. influenzae). Absorbance was read at 540 nm (Multiskan Titertek mcc/340). Bacterial growth was scored as follows:
as §2
(§5) The impact of the novel β-lactamase inhibitors is expressed as the ratio of the MIC determined in the absence of β-lactamase inhibitor to the MIC determined in the presence of the specified concentration of the β-lactamase inhibitor test compound. […]
(§6) Following procedures identical to those described in Example 72, β-lactamase inhibitors were tested for their ability to enhance antibiotic efficacy against β-lactamase positive bacterial strains that are very highly resistant to β-lactam antibiotics.
(§7) • Enterobacter cloacae (derepressed) • Pseudomonas aeroginosa [ATCC#12470-resistant] • Stenotrophomonas maltophilia [ATCC#12968-resistant] • Pseudomonas aeroginosa [ATCC#98043010-intermediate resistance] • Stenotrophomonas maltopilia [ATCC#98043029-intermediate resistance]

Data set [4] concerns Enterobacter cloacae (derepressed). Described as above. It counts as cell-based. Conditions: derepressed strain. How it is done: as §1, §3, §4, §2, §5, §6, §7
Data set [5] relates to Pseudomonas aeroginosa [ATCC#98043010-intermediate resistance]. The data set is described as above. It counts as cell-based. How it is done: as §1, §3, §4, §2, §5, §6, §7
In data set [6] the test system is Stenotrophomonas maltophilia [ATCC#12968-resistant]. Described as above. It is filed as cell-based. How it is done: as §1, §3, §4, §2, §5, §6, §7
In data set [7] the test system is Stenotrophomonas maltophilia [ATCC#98043029-intermediate resistance]. The data set is described as above. It counts as cell-based. How it is done: as §1, §3, §4, §2, §5, §6, §7

Chain of P99 β-lactamase (class C) (P05364 21-381): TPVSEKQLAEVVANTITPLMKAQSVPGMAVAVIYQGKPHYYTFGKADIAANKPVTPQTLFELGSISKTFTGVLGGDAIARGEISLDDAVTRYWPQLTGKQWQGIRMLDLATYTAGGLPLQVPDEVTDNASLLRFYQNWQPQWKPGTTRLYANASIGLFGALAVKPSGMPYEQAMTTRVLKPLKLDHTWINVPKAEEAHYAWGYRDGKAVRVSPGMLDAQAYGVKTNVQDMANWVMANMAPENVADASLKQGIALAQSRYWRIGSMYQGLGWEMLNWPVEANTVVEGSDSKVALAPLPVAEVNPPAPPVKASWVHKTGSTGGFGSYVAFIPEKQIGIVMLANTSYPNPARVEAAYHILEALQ

`O=[N+]([O-])c1ccc(OP(=O)(O)CNS(=O)(=O)c2cc3c(Cl)ccc(Cl)c3s2)cc1` [Compound 128, (5,8-dichlorobenzothiophene-2-sulfonyl)aminomethylphosphonic acid mono-(4-nitrophenyl) ester ammonium salt] showed a logP in “physchem” of 0.45. In data set [1], this compound had an IC50 of 100 nM. Further, the “Synergy Class C E. Cl” value in data set [2] was found to be 16. Moreover, the “Synergy Resistant Pseudo.” value in data set [3] (inhibitor 1 μg/mL) and in data set [3] (inhibitor 10 μg/mL) was 1 throughout. Further, the “Synergy Resistant Ent. Cloacae” value is 1 in data set [4] (inhibitor 1 μg/mL) and 5 in data set [4] (inhibitor 10 μg/mL). Besides, the “Synergy Intermed. Pseudo.” value in data set [5] (inhibitor 1 μg/mL) stood at 1; in data set [5] (inhibitor 10 μg/mL) it was 2. Also, the “Synergy Resistant Stenotro.” value in data set [6] (inhibitor 1 μg/mL) and in data set [6] (inhibitor 10 μg/mL) was 1 each time. In addition, the “Synergy Intermed. Stenotro.” value stood at 1 in data set [7] (inhibitor 1 μg/mL) and 2 in data set [7] (inhibitor 10 μg/mL).

For the origin of these results see US7259172B2, “Inhibitors of β-lactamase” (priority 1999, dated 2007).
